Test results taken from patent US10494404B2, “Quinolinium conjugates of cyclosporin” (priority 2014, dated 2019).

How the values were obtained:
HepG2 cells = experiment: HepG2 high content screening of cell health markers; type: cell-based; settings: HepG2, 72 h exposure
Protocol: HepG2 cells were plated on 96-well tissue culture treated black walled clear bottomed polystyrene plates, 100 μL, (3000 cells) per well. After 24 hours the cells were dosed with the test compounds at a range of concentrations. At the end of the incubation period, the cells were loaded with the relevant dye/antibody for each cell health markers set out below. The plates were then scanned using an automated fluorescent cellular imager [ArrayScan VTI (Thermo Scientific Cellomics)].
The following cell health markers were measured: • a. Cell count—a decreasing number of cells per well indicates toxicity due to necrosis, apoptosis or a reduction in cellular proliferation. • b. Nuclear area—an increase in nuclear size indicates necrosis or G2 cell cycle arrest and a decrease indicates apoptosis. • c. DNA structure—an increase in DNA structure indicates chromosomal instability and DNA fragmentation. • d. […]
HepG2 cells were seeded in black, clear-bottom 96-well tissue culture plates at a density of 3000 cells per well. […] Cell count, nuclear size and DNA structure were also measured Hoechst 33342 (Life Technologies). Following staining of the HepG2 cells fluorescence was analyzed by image acquisition with a Thermo Fisher Cellomics® ArrayScanVTI High Content Screening Reader (ThermoFisher Scientific Inc., Waltham, Mass.) and vHCS™ view software (ThermoFisher Scientific Inc.). […]

[1] = test system: Ca^2+ mediated PT pore formation (CypD KO mitochondria); experiment: Calcium retention capacity (CRC) assay, liver mitochondria from CypD knockout mice; type: biochemical, mouse
Protocol: Subcellular fractionation was performed as previously described (Astin et al, 2013). […] At 4° C., the liver was rinsed in PBS to remove excess blood, and any fat and connective tissue was eliminated. PBS was then replaced with isolation buffer containing 1 mM PMSF, and the liver was chopped into pieces (approximately 2 mm in length). Tissue was then homogenized in this solution until no solid matter remained, and then centrifuged at 800G for 10 minutes at 4° C. The nuclear pellet was then discarded, and the post nuclear supernatant retained, and centrifuged at 10300G for another 10 minutes at 4° C. […] Protein levels were quantified using a ThermoScientific BCA protein quantification assay, as per manufacturer's instructions.
Isolated mitochondria were resuspended (500 μg protein/ml) in MSK buffer (75 mM mannitol, 25 mM sucrose, 5 mM potassium phosphate monobasic, 20 mM Tris-HCl, 100 mM KCl, and 0.1% bovine serum albumin, pH 7.4) supplemented with 10 mM succinate, 1 μM rotenone and 1 μM Fluo5N. […] Compounds were incubated for ten minutes before the plate was assayed in a Fluostar Optima plate reader, using Ex/Em filters at 480/520 […]; CaCl2 was injected approximately every 6.5 minutes for 80 minutes (12 total injections, final concentration of 75 μM). […] Percentage inhibition for each [compound] was then calculated as the % of the corresponding value for the untreated condition. […]

[2] = test system: DIV 8-9 rat cortical neurons; experiment: Mitochondrial functional parameters in DIV 8-9 rat cultured cortical neurons; type: cell-based; settings: Compound 1 up to 200 nM, CsA up to 1 μM
Protocol: The minimum value after the addition of compound (prior to the addition of FCCP) was taken, and this was expressed as a % (using baseline as 100% and FCCP as 0%), and then normalized to DMSO (100%). Significance was assessed by one-way ANOVA, in comparison to DMSO control.
Freshly isolated mitochondria were resuspended in MSK buffer (containing 10 mM glutamate and 2 mM malate) at 1 mg/ml and plated in opaque white 96 well plates, or for neuronal assays, neurons were used 9 days after plating at 15000 cells/well. Drugs were added at the concentrations specified, and for mitochondrial assays were incubated for ten minutes before addition of ADP (5 mM), followed by another 45 minutes. For neuronal assays, drugs were added in neurobasal medium and incubated for 60 minutes. Cell Titer Glo reagent was then added, and the plate shaken for 2 minutes in the dark to lyse cells/mitochondria and release ATP. The plates were incubated a further ten minutes and then luminescence values read using an Optima FluoStar.

## CC[C@@H]1NC(=O)[C@H]([C@H](O)[C@H](C)C/C=C/CCC[n+]2cccc3ccccc32)N(C)C(=O)[C@H](C(C)C)N(C)C(=O)[C@H](CC(C)C)N(C)C(=O)[C@H](CC(C)C)N(C)C(=O)[C@@H](C)NC(=O)[C@H](C)NC(=O)[C@H](CC(C)C)N(C)C(=O)[C@H](C(C)C)NC(=O)[C@H](CC(C)C)N(C)C(=O)CN(C)C1=O [Compound 1, [Gly-(1S,2R,E)-8-quinolinium-1-hydroxy-2-methyloct-4-ene]^1 CsA]
HepG2 cells
  toxicity (cell health markers) compared with unmodified CsA: significantly reduced the toxicity of cyclosporin
[1]
  effect on CRC: Neither CsA nor Compound 1 had any effect
[2]; TMRM
  mitochondrial membrane potential: Neither mitochondrial membrane potential (FIG. 4A,B), oxygen consumption (FIG. 4C, D) and ATP production (FIG. 4E, F) were affected
[2]; luciferase assay
  ATP levels / ATP production: Neither mitochondrial membrane potential (FIG. 4A,B), oxygen consumption (FIG. 4C, D) and ATP production (FIG. 4E, F) were affected
